In US20250197409A1, “BIFUNCTIONAL COMPOUND AND PHARMACEUTICAL COMPOSITION COMPRISING THE BIFUNCTIONAL COMPOUND, AND METHOD FOR TREATING ANDROGEN RECEPTOR RELATED DISEASE BY USING THE SAME” (ANHORN MEDICINES CO., LTD., priority 2022, published 2025):

These compounds were tested against T1, androgen receptor (Homo sapiens, UniProt P10275, T878A) (assay: Androgen receptor degradation assay using Western blot analysis). Conditions: LNCaP.FGC cells, serial 10x dilutions from 100 nM; read-out: AR DC50 (concentration needed for 50% AR degradation).
T1 construct: host or cells: LNCaP.FGC
T1 sequence (P10275 whole entry T878A): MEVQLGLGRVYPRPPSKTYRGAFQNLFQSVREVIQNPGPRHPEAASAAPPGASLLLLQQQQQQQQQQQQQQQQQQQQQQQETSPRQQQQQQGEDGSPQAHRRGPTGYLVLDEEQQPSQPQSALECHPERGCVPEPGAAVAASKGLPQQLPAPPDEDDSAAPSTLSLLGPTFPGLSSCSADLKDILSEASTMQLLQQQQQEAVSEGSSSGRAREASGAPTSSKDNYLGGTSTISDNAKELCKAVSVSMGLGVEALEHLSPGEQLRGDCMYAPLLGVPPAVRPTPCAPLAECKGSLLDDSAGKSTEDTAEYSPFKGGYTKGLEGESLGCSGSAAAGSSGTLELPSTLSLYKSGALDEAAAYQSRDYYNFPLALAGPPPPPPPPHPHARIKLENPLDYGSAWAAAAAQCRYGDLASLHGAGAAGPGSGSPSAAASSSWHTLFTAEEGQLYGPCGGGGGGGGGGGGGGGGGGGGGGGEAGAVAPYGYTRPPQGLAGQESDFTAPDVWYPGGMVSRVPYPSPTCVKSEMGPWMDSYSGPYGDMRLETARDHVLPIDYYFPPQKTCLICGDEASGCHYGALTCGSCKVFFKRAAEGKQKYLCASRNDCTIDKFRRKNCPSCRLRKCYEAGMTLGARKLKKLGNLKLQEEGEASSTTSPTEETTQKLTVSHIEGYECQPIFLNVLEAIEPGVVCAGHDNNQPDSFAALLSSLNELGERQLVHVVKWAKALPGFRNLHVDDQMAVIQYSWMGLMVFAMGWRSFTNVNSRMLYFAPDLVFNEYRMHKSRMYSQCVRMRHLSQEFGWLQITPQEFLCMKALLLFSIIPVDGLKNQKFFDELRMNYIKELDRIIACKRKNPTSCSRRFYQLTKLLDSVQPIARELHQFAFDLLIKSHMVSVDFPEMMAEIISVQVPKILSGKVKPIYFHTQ
T1 sequence (Q96SW2 whole entry partner): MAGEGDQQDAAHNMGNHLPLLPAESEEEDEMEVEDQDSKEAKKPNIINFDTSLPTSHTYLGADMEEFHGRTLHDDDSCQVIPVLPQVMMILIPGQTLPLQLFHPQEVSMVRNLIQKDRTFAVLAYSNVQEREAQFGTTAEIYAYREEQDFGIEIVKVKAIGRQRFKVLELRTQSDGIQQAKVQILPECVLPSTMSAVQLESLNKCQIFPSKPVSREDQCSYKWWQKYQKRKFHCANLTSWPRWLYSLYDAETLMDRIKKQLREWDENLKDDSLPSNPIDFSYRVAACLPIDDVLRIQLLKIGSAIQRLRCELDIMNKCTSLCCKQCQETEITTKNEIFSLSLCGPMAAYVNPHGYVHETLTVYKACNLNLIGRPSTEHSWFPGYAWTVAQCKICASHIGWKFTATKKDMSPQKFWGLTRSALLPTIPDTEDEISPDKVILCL
Assay type: cell-based
Procedure, shortened: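 LNCaP.FGC cells (2×10^5/well) treated with 10-fold serial dilutions in RPMI from 100 nM stock; untreated cells as negative control. AR Western signal normalized to GAPDH, expressed as % remaining versus untreated (100%). DC50 derived from calibration curve of serial dilutions.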
`Cn1c2c(c3ccc(OCCOC4CC5(CCN(c6ccc(C(=O)N[C@H]7CC[C@H](Oc8ccc(C#N)c(Cl)c8)CC7)nn6)C5)C4)cc31)C(=O)N(C1CCC(=O)NC1=O)C2=O` (some centres unmarked) [Compound 174] showed a DC50 of 25 to 100 nM. `Cn1c2c(c3ccc(OCCCOC4CC5(CCN(c6ccc(C(=O)N[C@H]7CC[C@H](Oc8ccc(C#N)c(Cl)c8)CC7)nn6)C5)C4)cc31)C(=O)N(C1CCC(=O)NC1=O)C2=O` (some centres unmarked) [Compound 179] was tested, and the DC50 was 25 to 100 nM. Work on `Cn1c2c(c3ccc(OCCCCOC4CCN(c5ccc(C(=O)N[C@H]6CC[C@H](Oc7ccc(C#N)c(Cl)c7)CC6)nn5)CC4)cc31)C(=O)N(C1CCC(=O)NC1=O)C2=O` (some centres unmarked) [Compound 187] yielded a DC50 of 25 to 100 nM. Work on `CC(COc1ccc2c3c(n(C)c2c1)C(=O)N(C1CCC(=O)NC1=O)C3=O)CN1CCN(c2ccc(C(=O)N[C@H]3CC[C@H](Oc4ccc(C#N)c(Cl)c4)CC3)nn2)CC1` (some centres unmarked) [Compound 188] yielded a DC50 of 25 to 100 nM. Compound `Cn1c2c(c3ccc(OCCCN4CCC5(CC4)CCN(c4ccc(C(=O)N[C@H]6CC[C@H](Oc7ccc(C#N)c(Cl)c7)CC6)nn4)CC5)cc31)C(=O)N(C1CCC(=O)NC1=O)C2=O` (some centres unmarked) [Compound 194] has a DC50 of 10 to 25 nM. For `Cn1c2c(c3ccc(OCCN4CCC5(CC4)CCN(c4ccc(C(=O)N[C@H]6CC[C@H](Oc7ccc(C#N)c(Cl)c7)CC6)nn4)CC5)cc31)C(=O)N(C1CCC(=O)NC1=O)C2=O` (some centres unmarked) [Compound 195], the DC50 was 10 to 25 nM. `Cn1c2c(c3ccc(OCCCN4CC=C(c5ccc(C(=O)N[C@H]6CC[C@H](Oc7ccc(C#N)c(Cl)c7)CC6)nn5)CC4)cc31)C(=O)N(C1CCC(=O)NC1=O)C2=O` (some centres unmarked) [Compound 196] was tested, and the DC50 was < 10 nM. `Cn1c2c(c3ccc(OCCN4CC=C(c5ccc(C(=O)N[C@H]6CC[C@H](Oc7ccc(C#N)c(Cl)c7)CC6)nn5)CC4)cc31)C(=O)N(C1CCC(=O)NC1=O)C2=O` (some centres unmarked) [Compound 197] was tested, and the DC50 was 10 to 25 nM. `CC(COc1ccc2c3c(n(C)c2c1)C(=O)N(C1CCC(=O)NC1=O)C3=O)CN1CC=C(c2ccc(C(=O)N[C@H]3CC[C@H](Oc4ccc(C#N)c(Cl)c4)CC3)nn2)CC1` (some centres unmarked) [Compound 200] gave a DC50 of 10 to 25 nM. With `Cn1c2c(c3ccc(OCCCN4CCN(c5ccc(C(=O)N[C@H]6CC[C@H](Oc7ccc(C#N)c(Cl)c7)CC6)nn5)CC4)cc31)C(=O)N(C1CCC(=O)NC1=O)C2=O` (some centres unmarked) [Compound 207] the DC50 was < 10 nM. With `Cn1c2c(c3ccc(OCCN4CCC(c5ccc(C(=O)N[C@H]6CC[C@H](Oc7ccc(C#N)c(Cl)c7)CC6)nn5)CC4)cc31)C(=O)N(C1CCC(=O)NC1=O)C2=O` (some centres unmarked) [Compound 208] the DC50 was 10 to 25 nM. Work on `Cn1c2c(c3ccc(OC4CCN(CC5CCN(c6ccc(C(=O)N[C@H]7CC[C@H](Oc8ccc(C#N)c(Cl)c8)CC7)nn6)CC5)CC4)cc31)C(=O)N(C1CCC(=O)NC1=O)C2=O` (some centres unmarked) [Compound 215] yielded a DC50 of 10 to 25 nM. `Cn1c2c(c3ccc(OC4CCN(CC5CCN(c6ccc(C(=O)N[C@H]7CC[C@@H](Oc8ccc(C#N)c(Cl)c8)CC7)nn6)CC5)CC4)cc31)C(=O)N(C1CCC(=O)NC1=O)C2=O` (some centres unmarked) [Compound 216] was tested, and the DC50 was < 10 nM. `Cn1c2c(c3ccc(OC4CCN(CC5CN(c6ccc(C(=O)N[C@H]7CC[C@H](Oc8ccc(C#N)c(Cl)c8)CC7)nn6)C5)CC4)cc31)C(=O)N(C1CCC(=O)NC1=O)C2=O` (some centres unmarked) [Compound 217] was tested, and the DC50 was 10 to 25 nM.

Same assay, conditions: read-out: AR DC50 (concentration needed for 50% AR degradation); LNCaP.FGC cells, serial 10x dilutions from 100 nM
`CCn1c2c(c3ccc(OCCCOC4CC5(CCN(c6ccc(C(=O)N[C@H]7CC[C@H](Oc8ccc(C#N)c(Cl)c8)CC7)nn6)CC5)C4)cc31)C(=O)N(C1CCC(=O)NC1=O)C2=O` (some centres unmarked) [Compound 172] was tested, and the DC50 was 25 to 100 nM. `Cn1c2c(c3ccc(OCCOC4CC5(CCN(c6ccc(C(=O)N[C@H]7CC[C@H](N(C)c8ccc(C#N)c(Cl)c8)CC7)nn6)C5)C4)cc31)C(=O)N(C1CCC(=O)NC1=O)C2=O` (some centres unmarked) [Compound 175] was tested, and the DC50 was 10 to 25 nM. `CCn1c2c(c3ccc(OCCCOC4CC5(CCN(c6ccc(C(=O)N[C@H]7CC[C@H](Oc8ccc(C#N)c(Cl)c8)CC7)nn6)C5)C4)cc31)C(=O)N(C1CCC(=O)NC1=O)C2=O` (some centres unmarked) [Compound 176] showed a DC50 of 25 to 100 nM. `CCn1c2c(c3ccc(OCCCOC4CC5(CCN(c6ccc(C(=O)N[C@H]7CC[C@H](N(C)c8ccc(C#N)c(Cl)c8)CC7)nn6)C5)C4)cc31)C(=O)N(C1CCC(=O)NC1=O)C2=O` (some centres unmarked) [Compound 177] gave a DC50 of 25 to 100 nM. `Cn1c2c(c3ccc(OCCCOC4CC5(CCN(c6ccc(C(=O)N[C@H]7CC[C@H](N(C)c8ccc(C#N)c(Cl)c8)CC7)nn6)C5)C4)cc31)C(=O)N(C1CCC(=O)NC1=O)C2=O` (some centres unmarked) [Compound 178] showed a DC50 of 10 to 25 nM. With `CCn1c2c(c3ccc(OCCN4CCC5(CC4)CCN(c4ccc(C(=O)N[C@H]6CC[C@H](N(C)c7ccc(C#N)c(Cl)c7)CC6)nn4)CC5)cc31)C(=O)N(C1CCC(=O)NC1=O)C2=O` (some centres unmarked) [Compound 180] the DC50 was < 10 nM. In the case of `CCn1c2c(c3ccc(OCCCN4CCC5(CC4)CCN(c4ccc(C(=O)N[C@H]6CC[C@H](N(C)c7ccc(C#N)c(Cl)c7)CC6)nn4)CC5)cc31)C(=O)N(C1CCC(=O)NC1=O)C2=O` (some centres unmarked) [Compound 181], the DC50 was < 10 nM. `CCn1c2c(c3ccc(OCCN4CCC5(CC4)CCN(c4ccc(C(=O)N[C@H]6CC[C@H](Oc7ccc(C#N)c(Cl)c7)CC6)nn4)CC5)cc31)C(=O)N(C1CCC(=O)NC1=O)C2=O` (some centres unmarked) [Compound 182] was tested, and the DC50 was < 10 nM. With `CCn1c2c(c3ccc(OCCCN4CCC5(CC4)CCN(c4ccc(C(=O)N[C@H]6CC[C@H](Oc7ccc(C#N)c(Cl)c7)CC6)nn4)CC5)cc31)C(=O)N(C1CCC(=O)NC1=O)C2=O` (some centres unmarked) [Compound 183] the DC50 was 10 to 25 nM. `CCn1c2c(c3ccc(OCCCCOC4CCN(c5ccc(C(=O)N[C@H]6CC[C@H](Oc7ccc(C#N)c(Cl)c7)CC6)nn5)CC4)cc31)C(=O)N(C1CCC(=O)NC1=O)C2=O` (some centres unmarked) [Compound 185] showed a DC50 of 25 to 100 nM. `Cn1c2c(c3ccc(OCCCCOC4CCN(c5ccc(C(=O)N[C@H]6CC[C@H](N(C)c7ccc(C#N)c(Cl)c7)CC6)nn5)CC4)cc31)C(=O)N(C1CCC(=O)NC1=O)C2=O` (some centres unmarked) [Compound 186] showed a DC50 of 10 to 25 nM. Compound `CC(COc1ccc2c3c(n(C)c2c1)C(=O)N(C1CCC(=O)NC1=O)C3=O)CN1CCN(c2ccc(C(=O)N[C@H]3CC[C@H](N(C)c4ccc(C#N)c(Cl)c4)CC3)nn2)CC1` (some centres unmarked) [Compound 189] has a DC50 of 10 to 25 nM. `CCn1c2c(c3ccc(OCCCN4CC=C(c5ccc(C(=O)N[C@H]6CC[C@H](Oc7ccc(C#N)c(Cl)c7)CC6)nn5)CC4)cc31)C(=O)N(C1CCC(=O)NC1=O)C2=O` (some centres unmarked) [Compound 190] was tested, and the DC50 was 10 to 25 nM. With `CCn1c2c(c3ccc(OCCN4CC=C(c5ccc(C(=O)N[C@H]6CC[C@H](Oc7ccc(C#N)c(Cl)c7)CC6)nn5)CC4)cc31)C(=O)N(C1CCC(=O)NC1=O)C2=O` (some centres unmarked) [Compound 191] the DC50 was < 10 nM. `CCn1c2c(c3ccc(OCC(C)CN4CCN(c5ccc(C(=O)N[C@H]6CC[C@H](Oc7ccc(C#N)c(Cl)c7)CC6)nn5)CC4)cc31)C(=O)N(C1CCC(=O)NC1=O)C2=O` (some centres unmarked) [Compound 192] gave a DC50 of 25 to 100 nM. For `CCn1c2c(c3ccc(OCC(C)CN4CCN(c5ccc(C(=O)N[C@H]6CC[C@H](N(C)c7ccc(C#N)c(Cl)c7)CC6)nn5)CC4)cc31)C(=O)N(C1CCC(=O)NC1=O)C2=O` (some centres unmarked) [Compound 193], the DC50 was 25 to 100 nM. For `Cn1c2c(c3ccc(OCCCN4CCC5(CC4)CCN(c4ccc(C(=O)N[C@H]6CC[C@H](N(C)c7ccc(C#N)c(Cl)c7)CC6)nn4)CC5)cc31)C(=O)N(C1CCC(=O)NC1=O)C2=O` (some centres unmarked) [Compound 198], the DC50 was < 10 nM. `Cn1c2c(c3ccc(OCCN4CCC5(CC4)CCN(c4ccc(C(=O)N[C@H]6CC[C@H](N(C)c7ccc(C#N)c(Cl)c7)CC6)nn4)CC5)cc31)C(=O)N(C1CCC(=O)NC1=O)C2=O` (some centres unmarked) [Compound 199] showed a DC50 of 10 to 25 nM. `CCn1c2c(c3ccc(OCCCN4CC=C(c5ccc(C(=O)N[C@H]6CC[C@H](N(C)c7ccc(C#N)c(Cl)c7)CC6)nn5)CC4)cc31)C(=O)N(C1CCC(=O)NC1=O)C2=O` (some centres unmarked) [Compound 201] was tested, and the DC50 was 10 to 25 nM. In the case of `CCn1c2c(c3ccc(OCCN4CC=C(c5ccc(C(=O)N[C@H]6CC[C@H](N(C)c7ccc(C#N)c(Cl)c7)CC6)nn5)CC4)cc31)C(=O)N(C1CCC(=O)NC1=O)C2=O` (some centres unmarked) [Compound 202], the DC50 was 25 to 100 nM. In the case of `CCn1c2c(c3ccc(OC4CCN(CC5CCN(c6ccc(C(=O)N[C@H]7CC[C@H](Oc8ccc(C#N)c(Cl)c8)CC7)nn6)CC5)CC4)cc31)C(=O)N(C1CCC(=O)NC1=O)C2=O` (some centres unmarked) [Compound 203], the DC50 was < 10 nM. For `CCn1c2c(c3ccc(OC4CCN(CC5CCN(c6ccc(C(=O)N[C@H]7CC[C@@H](Oc8ccc(C#N)c(Cl)c8)CC7)nn6)CC5)CC4)cc31)C(=O)N(C1CCC(=O)NC1=O)C2=O` (some centres unmarked) [Compound 204], the DC50 was 10 to 25 nM. `CCn1c2c(c3ccc(OCCCN4CCN(c5ccc(C(=O)N[C@H]6CC[C@H](Oc7ccc(C#N)c(Cl)c7)CC6)nn5)CC4)cc31)C(=O)N(C1CCC(=O)NC1=O)C2=O` (some centres unmarked) [Compound 205] was tested, and the DC50 was < 10 nM. `CCn1c2c(c3ccc(OCCN4CCC(c5ccc(C(=O)N[C@H]6CC[C@H](Oc7ccc(C#N)c(Cl)c7)CC6)nn5)CC4)cc31)C(=O)N(C1CCC(=O)NC1=O)C2=O` (some centres unmarked) [Compound 206] showed a DC50 of 10 to 25 nM. Compound `CCn1c2c(c3ccc(OC(C)CCN4CCN(c5ccc(C(=O)N[C@H]6CC[C@H](Oc7ccc(C#N)c(Cl)c7)CC6)nn5)CC4)cc31)C(=O)N(C1CCC(=O)NC1=O)C2=O` (some centres unmarked) [Compound 209] has a DC50 of 10 to 25 nM. Work on `CCn1c2c(c3ccc(OC4CCN(CC5CN(c6ccc(C(=O)N[C@H]7CC[C@H](Oc8ccc(C#N)c(Cl)c8)CC7)nn6)C5)CC4)cc31)C(=O)N(C1CCC(=O)NC1=O)C2=O` (some centres unmarked) [Compound 210] yielded a DC50 of 10 to 25 nM. In the case of `CCn1c2c(c3ccc(OC(C)CCN4CCC(c5ccc(C(=O)N[C@H]6CC[C@H](Oc7ccc(C#N)c(Cl)c7)CC6)nn5)CC4)cc31)C(=O)N(C1CCC(=O)NC1=O)C2=O` (some centres unmarked) [Compound 211], the DC50 was < 10 nM. `CCn1c2c(c3ccc(OC4CCN(CC5CCN(c6ccc(C(=O)N[C@H]7C(C)(C)[C@H](Oc8ccc(C#N)c(Cl)c8)C7(C)C)nn6)CC5)CC4)cc31)C(=O)N(C1CCC(=O)NC1=O)C2=O` (some centres unmarked) [Compound 212] showed a DC50 of 25 to 100 nM. With `CCn1c2c(c3ccc(OC4CCN(CC5CCN(c6ccc(C(=O)N[C@H]7C(C)(C)[C@@H](Oc8ccc(C#N)c(Cl)c8)C7(C)C)nn6)CC5)CC4)cc31)C(=O)N(C1CCC(=O)NC1=O)C2=O` (some centres unmarked) [Compound 213] the DC50 was 10 to 25 nM. For `CCn1c2c(c3ccc(OC4CCN(CC5CCN(c6ccc(C(=O)N[C@H]7C(C)(C)[C@H](Oc8ccc(C#N)c(Cl)c8)C7(C)C)cc6)CC5)CC4)cc31)C(=O)N(C1CCC(=O)NC1=O)C2=O` (some centres unmarked) [Compound 214], the DC50 was > 100 nM.
